{"source": "patent US11723961B2", "about": "“Maspin, maspin derivatives, and maspin mimetics for reducing ROS, inflammation, and skin aging” (Northwestern University, priority 2014, dated 2023)", "key": {"[1]": {"test_system": "pERK1/2 in TM40DNeo, TM40DMp and TM40DT cells", "assay": "ERK1/2 phosphorylation (Western blot) with NAC treatment", "type": "cell-based, mouse", "experimental": "ERK1/2 phosphorylation—Protein lysates (30 μg) were separated on 12% SDS-PAGE and phospho-plus kit was used to determine the ERK1/2 phosphorylation (Cat No. 9100, Cell Signaling Technology)."}, "[2]": {"test_system": "TM40DNeo, TM40DMp and TM40DT cells", "assay": "MTT in vitro cell proliferation assay with NAC treatment", "type": "cell-based, mouse", "experimental": "MTT in vitro cell proliferation assay—Cells were seeded at 10^3 cells/well in 96—well plate and allowed to grow at 37° C. with 5% CO2. At each time point MTT (3-(4, 5-dimethylthiazolyl-2)-2, 5 diphenyltetrazolium bromide) reagent (5 mg/ml) was added in a volume of 10 μl per well and incubated at 37° C. with 5% CO2 for 3 hrs. The media was aspirated and 100 μl of DMSO was added and mixed until a uniform purple color was formed. The cell samples were measured using a plate reader at 570 nm. Assays were performed in triplicates."}}, "data": [{"smiles": "CC(=O)N[C@@H](CS)C(=O)O", "note": "[NAC, N-acetyl cysteine]", "values": [{"measurement": "levels of activated pERK1/2", "setting": "[1]; TM40DMp cells", "result": "no change"}, {"measurement": "levels of activated pERK1/2", "setting": "[1]; TM40DNeo cells", "result": "significantly reduced"}, {"measurement": "levels of activated pERK1/2", "setting": "[1]; TM40DT cells", "result": "significantly reduced"}, {"measurement": "proliferation rate", "setting": "[2]; TM40DMp cells", "result": "no significant change"}, {"measurement": "proliferation rate", "setting": "[2]; TM40DNeo cells", "result": "significant drop"}, {"measurement": "proliferation rate", "setting": "[2]; TM40DT cells", "result": "significant drop"}]}]}
